Assay results as given in patent US3974140A, “Ureidoacetamido-penicillins” (Bayer Aktiengesellschaft, priority 1970, dated 1976).
Where “and” joins values, the source holds several entries; their conditions need not be identical. Equal values may be shown once.

What was measured:
[1] = Acute toxicity (LD50), intravenous injection into the vein of the tail; type: in vivo; settings: for LD50: mouse, in vivo, iv
Source text: Acute toxicity (LD50) in white mice after
intravenous injection into the vein of the […]

E. coli 14 = assay: MIC, liquid medium test tube series dilution test; type: cell-based; settings: E. coli 14, 24 hours, 37°C
In short: (§1)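 Penicillins were serially diluted in test tubes of complete liquid medium, inoculated, incubated 24 hours at 37°C, and inspected; the non-turbid tube of the series marked the minimum inhibitory concentration (units/ml).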

E. coli 183/58 = assay: MIC, liquid medium test tube series dilution test; type: cell-based; settings: E. coli 183/58, 24 hours, 37°C
In short: as §1

E. coli A 261 = assay: MIC, liquid medium test tube series dilution test; type: cell-based; settings: E. coli A 261, 24 hours, 37°C
In short: as §1

E. coli C 165 = assay: MIC, liquid medium test tube series dilution test; type: cell-based; settings: E. coli C 165, 24 hours, 37°C
In short: as §1

Klebsiella 63 = assay: MIC, liquid medium test tube series dilution test; type: cell-based; settings: Klebsiella 63, 24 hours, 37°C
In short: as §1

Klebsiella K 10 = assay: MIC, liquid medium test tube series dilution test; type: cell-based; settings: Klebsiella K 10, 24 hours, 37°C
In short: as §1

[2] = test system: Streptoc. faec. ATCC 9790; assay: MIC, liquid medium test tube series dilution test; type: cell-based; settings: Strep. faec. (Enterococcus) ATCC 9790, 24 hours, 37°C
In short: as §1

Proteus vulg. 1017 = assay: MIC, liquid medium test tube series dilution test; type: cell-based, Proteus vulgaris; settings: Proteus vulg. 1017, 24 hours, 37°C
In short: as §1

Proteus vulg. 3400 = assay: MIC, liquid medium test tube series dilution test; type: cell-based, Proteus vulgaris; settings: Proteus vulg. 3400, 24 hours, 37°C
In short: as §1

Psdm. aerug. Bonn = assay: MIC, liquid medium test tube series dilution test; type: cell-based, Pseudomonas aerug.; settings: 24 hours, 37°C
In short: as §1

Psdm. aerug. Walter = assay: MIC, liquid medium test tube series dilution test; type: cell-based, Pseudomonas aerug.; settings: 24 hours, 37°C
In short: as §1

Staph. aureus 133 = assay: MIC, liquid medium test tube series dilution test; type: cell-based, Staphylococcus aureus; settings: Staph. aureus 133, 24 hours, 37°C
In short: as §1

Staph. aureus 1777 E = assay: MIC, liquid medium test tube series dilution test; type: cell-based, Staphylococcus aureus; settings: 24 hours, 37°C
In short: as §1

[3] = test system: Gram-negative and Gram-positive bacteria; assay: Antibacterial effect, general statements; settings: MIC comparison
[4] = Serum level after subcutaneous administration, measured from microbiological activity against Proteus vulgaris 1017; type: in vivo, white mice
Source text: Serum level after subcutaneous ("s.c.") administration to white mice, in units/ml of serum, measured from the microbiological activity against Proteus vulgaris 1017 (ampicillin-resistant).

[5] = i.v. into tail vein, white mice

| SMILES | MIC (E. coli 14) | MIC (E. coli 183/58) | MIC (E. coli A 261) [units/ml] | MIC (E. coli C 165) | MIC (Klebsiella 63) | MIC (Klebsiella K 10) | MIC [2] | MIC (Proteus vulg. 1017) | MIC (Proteus vulg. 3400) | MIC (Psdm. aerug. Bonn) | MIC (Psdm. aerug. Walter) | MIC (Staph. aureus 133) | MIC (Staph. aureus 1777 E) [units/ml] | Biological activity compared between penicillin (A) and penicillin (B) [3] | further results |
| --- | --- | --- | --- | --- | --- | --- | --- | --- | --- | --- | --- | --- | --- | --- | --- |
| Cc1onc(-c2c(Cl)cccc2Cl)c1C(=O)N[C@@H]1C(=O)N2[C@@H]1SC(C)(C)[C@@H]2C(=O)O [Dicycloxacillin, reference compound] | – | – | – | – | – | – | – | – | – | – | – | – | – | – | Acute toxicity (LD50) [1, 5]: 900 mg/kg |
| CN(C(=O)N[C@@H](C(=O)N[C@@H]1C(=O)N2[C@@H]1SC(C)(C)[C@@H]2C(=O)O)c1ccccc1)C(=O)OC1CCCCC1 [Example 29, Sodium D(-)-α-(3-cyclohexyloxycarbonyl-3-methyl-ureido)-benzylpenicillin] | 3.1 units/ml | 3.1 units/ml | > 400 | 6.3 units/ml | 100 units/ml | 200 units/ml | 100 units/ml | 12.5 units/ml | 12.5 units/ml | 25 units/ml | 50 units/ml | < 0.8 units/ml | 200 | identical within the limit of error | MIC (E. coli 183/58; listed as (A) of Example 29): 3.12 units/ml; MIC (E. coli A 261; listed as (A) of Example 29): 400 units/ml; MIC (E. coli C 165; listed as (A) of Example 29): 6.25 units/ml; MIC (Klebsiella K 10; listed as (A) of Example 29): 200 units/ml; MIC (Proteus vulg. 1017; listed as (A) of Example 29): 12.5 units/ml; MIC (Proteus vulg. 3400; listed as (A) of Example 29): 12.5 units/ml; MIC (Staph. aureus 133; listed as (A) of Example 29): < 0.7 units/ml; MIC (Staph. aureus 1777 E; listed as (A) of Example 29): 200 units/ml |
| C=CCOC(=O)N(C)C(=O)N[C@@H](C(=O)N[C@@H]1C(=O)N2[C@@H]1SC(C)(C)[C@@H]2C(=O)O)c1ccccc1 [Example 30, Sodium D(-)-α-(3-allyloxycarbonyl-3-methyl-ureido)-benzylpenicillin] | 4-20 units/ml | 20-100 units/ml | > 500 | 20-100 units/ml | 20-100 units/ml and 100-500 units/ml | 20-100 units/ml and 100-500 units/ml | 20-100 units/ml | 100-500 units/ml | 100-500 units/ml and 20-100 units/ml | 100-500 units/ml | 100-500 units/ml | 0.8-4 units/ml | – | identical within the limit of error | MIC (E. coli 14; listed as (A) of Example 30): 0.8-4 units/ml; MIC (E. coli 183/58; listed as (A) of Example 30): 4-20 units/ml; MIC (E. coli A 261; listed as (A) of Example 30): 100-500 units/ml; MIC (E. coli C 165; listed as (A) of Example 30): 4-20 units/ml; MIC (Proteus vulg. 1017; listed as (A) of Example 30): 20-100 units/ml; MIC (Psdm. aerug. Bonn; listed as (A) of Example 30): 4-20 units/ml; MIC (Psdm. aerug. Walter; listed as (A) of Example 30): 20-100 units/ml; MIC (Staph. aureus 133; listed as (A) of Example 30): 0.8-4 units/ml |
| CCN(C(=O)N[C@@H](C(=O)N[C@@H]1C(=O)N2[C@@H]1SC(C)(C)[C@@H]2C(=O)O)c1ccccc1)C(=O)c1ccccc1 [Example 60, Sodium D(-)-α-(3-benzoyl-3-ethyl-ureido)-benzylpenicillin] | 6.25 units/ml | 12.5 units/ml | > 400 | 25 units/ml | 50 units/ml | 100 units/ml | 100 units/ml | 25 units/ml | 50 units/ml | 25 units/ml | 50 units/ml | < 0.78 units/ml | 50 | – | LD50 [1, 5]: 1500 mg/kg |
| CN(C(=O)CCCl)C(=O)N[C@@H](C(=O)N[C@@H]1C(=O)N2[C@@H]1SC(C)(C)[C@@H]2C(=O)O)c1ccccc1 [Example 64, Sodium D(-)-α-(3-β -chloropropionyl-3-methyl-ureido)-benzylpenicillin] | 3.12 units/ml | 25 units/ml | > 400 | 25 units/ml | 100 units/ml | 100 units/ml | 100 units/ml | 25 units/ml | 100 units/ml | 25 units/ml | 50 units/ml | 1.56 units/ml | 50 | – | Serum level ([4]; 50.000 units s.c., 10 mins.): 50 units/ml of serum; Serum level ([4]; 50.000 units s.c., 20 mins.): 10 units/ml of serum; Serum level ([4]; 150.000 units s.c., 15 mins.): 42 units/ml of serum; Serum level ([4]; 150.000 units s.c., 30 mins.): 26 units/ml of serum; Serum level ([4]; 150.000 units s.c., 60 mins.): < 10 units/ml of serum |
| CN(C(=O)N[C@@H](C(=O)N[C@@H]1C(=O)N2[C@@H]1SC(C)(C)[C@@H]2C(=O)O)c1ccccc1)C(=O)OC1CCCCC1 [Example 67, Sodium D(-)-α-(3-cyclohexyloxycarbonyl-3-methyl-ureido)-benzylpenicillin] | 1.56 units/ml | 1.56 units/ml | 400 | 6.25 units/ml | 100 units/ml | 100 units/ml | 100 units/ml | 6.25 units/ml | 6.25 units/ml | 25 units/ml | 50 units/ml | < 0.78 units/ml | 400 | identical within the limit of error | MIC (E. coli 14; listed as (B) of Example 29): 1.56 units/ml; MIC (E. coli 183/58; listed as (B) of Example 29): 1.56 units/ml; MIC (E. coli A 261; listed as (B) of Example 29): 400 units/ml; MIC (E. coli C 165; listed as (B) of Example 29): 6.25 units/ml; MIC (Klebsiella K 10; listed as (B) of Example 29): 100 units/ml; MIC (Proteus vulg. 1017; listed as (B) of Example 29): 6.25 units/ml; MIC (Proteus vulg. 3400; listed as (B) of Example 29): 6.25 units/ml; MIC (Staph. aureus 133; listed as (B) of Example 29): < 0.7 units/ml |
| CN(C(=O)N[C@@H](C(=O)N[C@@H]1C(=O)N2[C@@H]1SC(C)(C)[C@@H]2C(=O)O)c1ccccc1)C(=O)c1cccs1 [Example 75, Sodium D(-)-α-(3-thenoyl-(2)-3-methyl-ureido)-benzylpenicillin] | < 0.8 units/ml | – | – | – | – | – | – | – | – | – | – | 0.8 units/ml | – | – | LD50 [1]: 1500 mg/kg |
| C=CCN(C(C)=O)C(=O)N[C@@H](C(=O)N[C@@H]1C(=O)N2[C@@H]1SC(C)(C)[C@@H]2C(=O)O)c1ccccc1 [Example 86, Sodium D(-)-α-(3-acetyl-3-allyl-ureido)-benzylpenicillin] | 12.5 units/ml | 50 units/ml | > 400 | 25 units/ml | 50 units/ml | 100 units/ml | 100 units/ml | 50 units/ml | 50 units/ml | 25 units/ml | 50 units/ml | < 0.78 units/ml | – | – | LD50 [1, 5]: > 3000 mg/kg |
| CN(C)C(=O)N(C)C(=O)N[C@@H](C(=O)N[C@@H]1C(=O)N2[C@@H]1SC(C)(C)[C@@H]2C(=O)O)c1ccccc1 [Example 94, Sodium D(-)-α-(3-dimethylaminocarbonyl-3-methyl-ureido)benzylpenicillin] | 12.5 units/ml | 100 units/ml | > 400 | 50 units/ml | 200 units/ml | 200 units/ml | 200 units/ml | 100 units/ml | 50 units/ml | 100 units/ml | 100 units/ml | 3.12 units/ml | – | – | LD50 [1]: 4000 mg/kg |
